The source of these data is patent US9181187B2, “Therapeutic agent for urinary excretion disorder” (ONO PHARMACEUTICAL CO., LTD., priority 2007, dated 2015).

The target of one assay is mouse EP1 receptor (Mus musculus (Mouse), UniProt P35375). The assay is described as follows: Measurement of EP1 Antagonist Activity (inhibition of PGE2-induced increase in intracellular calcium). The assay is classed as cell-based. The note with it: cells expressing mouse EP1 receptor; increase in intracellular calcium induced by PGE2 (100 nM). As to the method: The cells expressing mouse EP1 receptor were seeded at 10^4 cells/well in 96-well plates and cultured for 2 days with 10% Fetal Bovine Serum (FBS)/alpha Modified Eagle Medium (αMEM) in the incubator (37° C., 5% CO2). The cells were washed with phosphate buffer, and load buffer (10% FBS/αMEM containing Fura2/AM (5 μM), indomethacin (20 μM) and probenecid (2.5 mM)) was then added to each well and cells were left standing for 1 hour. Load buffer of each well was discarded and assay buffer (Hank's Balanced Salt Solution (HBSS) containing indomethacin (2.5 mM), probenecid (2.5 mM), HEPES-NaOH (10 mM) and 0.1% (w/v) Bovine Serum Albumin (BSA)) was added to each well and plates were left at room temperature in a dark room for 1 hour. Afterwards, compounds of the present invention (10 μL) or PGE2 (10 μL) prepared with assay buffer was added to each well and intracellular calcium concentrations were measured using a Fluorescence Drug Screening System (FDSS-4000, Hamamatsu Photonics K.K.). Changes in ratio of fluorescent intensity at 500 nm in cells exposed to alternating 2 excitation wavelengths was monitored as changes in intracellular calcium concentrations.
IC50 values were calculated based on the response inhibition rate of increase in intracellular calcium concentrations induced by PGE2 (100 nM) and was used as an index of EP1 antagonistic activity.

The next assay has as its system male cynomolgus monkeys. Description: Animal model of dysuria induced by intravesical infusion of ATP (singlecystometry). In kind it is in vivo, cynomolgus monkey. The settings on record: ATP solution intravesical, compound A 0.1 mg/kg subcutaneous. On the procedure: After administration of ketamine hydrochloride anesthesia (15 to 20 mg/kg), male cynomolgus monkeys (11 years, 3 male (symbol “∘” in the FIG. 1 and FIG. 2 represents individual one.)) were fixed onto a stereotaxic operating table. The top of the bladder catheter was connected to a pressure transducer via a three-way stopcock, and intravesical pressure was recorded using a distortion amplifier and a recorder. The other end of the three-way stopcock were connected to a syringe for intravesical infusion to which an infusion pump was connected and a extension tube which satisfied physiological saline to remove residual urine from bladder.
The physiological saline was infused into the bladder at an infusion rate of 1.5 to 7.0 mL/min, and immediately after completion of voiding, the intravesical infusion was terminated and residual urine was removed (hereinafter, the above procedures is assumed singlecystometry.) and the procedures were repeated. […] Urinary flow rate (voided volume per voiding time (mL/sec)) and residual urine rate (residual urine volume per voided volume (%)) were calculated for each of the singlecystometry before ATP perfusion, after ATP perfusion and after ATP perfusion conducted after administration of the compound A. The results are shown in FIG. 1 and FIG. 2.

mouse EP1 receptor, sequence (P35375 whole entry): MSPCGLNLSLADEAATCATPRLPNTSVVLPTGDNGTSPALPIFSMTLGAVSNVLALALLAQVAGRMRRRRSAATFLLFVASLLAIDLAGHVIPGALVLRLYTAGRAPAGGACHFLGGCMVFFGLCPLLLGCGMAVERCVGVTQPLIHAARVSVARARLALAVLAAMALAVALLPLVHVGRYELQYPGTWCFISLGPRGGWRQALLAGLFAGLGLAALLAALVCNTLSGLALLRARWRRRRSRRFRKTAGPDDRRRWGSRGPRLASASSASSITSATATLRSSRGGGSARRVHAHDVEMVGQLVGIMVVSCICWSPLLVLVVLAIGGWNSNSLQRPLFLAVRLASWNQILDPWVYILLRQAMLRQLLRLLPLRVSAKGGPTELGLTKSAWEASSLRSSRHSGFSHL

Take `Cc1cc(OCc2ccc(-c3nnn[nH]3)cc2Cl)c(N(C(C)C)S(=O)(=O)c2cccnc2)cc1C` [Compound K, N-[4,5-dimethyl-2-[2-chloro-4-(5-tetrazolyl)phenylmethyloxy]phenyl]-N-isopropyl-3-pyridylsulfonylamide]: the half-inhibitory concentration (IC50) at mouse EP1 receptor stood at 3.7 nM.

Take `Cc1csc(S(=O)(=O)N(CC(C)C)c2ccc(C(F)(F)F)cc2OCc2ccc(C=CC(=O)O)cc2)n1` [Compound G, 4-[2-[N-isobutyl-N-(4-methyl-2-thiazolylsulfonyl)amino]-5-trifluoromethylphenoxymethyl]cinnamic acid]: at mouse EP1 receptor, the half-inhibitory concentration (IC50) turned out to be 25 nM.

As to `Cc1ccc(S(=O)(=O)N(CC(C)C)c2cc3c(cc2OCc2ccc(C=CC(=O)O)cc2)CCC3)o1` [Compound E, 4-[6-[N-isobutyl-N-(5-methyl-2-furylsulfonyl)amino]indan-5-yloxymethyl]cinnamic acid], the IC50 at mouse EP1 receptor stood at 21 nM.

As to `Cc1cc(OCc2ccc(C=CC(=O)O)cc2C)c(N(CC(C)C)S(=O)(=O)c2cccnc2)cc1C` [Compound I, 3-methyl-4-[2-[N-isobutyl-N-(3-pyridylsulfonyl)amino]-4,5-dimethylphenoxymethyl]cinnamic acid], on mouse EP1 receptor, the concentration for half-maximal inhibition (IC50) was found to be 9.2 nM.

Regarding `Cc1csc(S(=O)(=O)N(c2cc(C)c(C)cc2OCc2ccc(-c3noc(=O)[nH]3)cc2)C(C)C)n1` [Compound L, N-[4,5-dimethyl-2-[4-(5-oxo-1,2,4-oxadiazol-3-yl)phenylmethyloxy]phenyl]-N-isopropyl-(4-methyl-2-thiazolyl)sulfonylamide], on mouse EP1 receptor, the half-maximal inhibitory concentration (IC50) is 7.1 nM.

Turning to `Cc1cc(C(=O)O)ccc1COc1cc2c(cc1N(CC(C)C)S(=O)(=O)c1nccs1)CCC2` [Compound A, 3-methyl-4-[6-[N-isobutyl-N-(2-thiazolylsulfonyl)amino]indan-5-yloxymethyl]benzoic acid], the half-maximal inhibitory concentration (IC50) on mouse EP1 receptor amounted to 6.9 nM. Also, in the assay with male cynomolgus monkeys (FIG. 1), the “Urinary flow rate (voided volume per voiding time)” value was “recovered the urinary flow rate decreased by ATP”. Further, the “Residual urine rate (residual urine volume per voided volume)” value in the assay on male cynomolgus monkeys (FIG. 2) is on record as “decreased the residual urine rate”.

Regarding `Cc1csc(S(=O)(=O)N(c2cc(C)c(Cl)cc2OCc2ccc(-c3nnn[nH]3)cc2)C(C)C)n1` [Compound J, N-[4-chloro-5-methyl-2-[4-(5-tetrazolyl)phenylmethyloxy]phenyl]-N-isopropyl-(4-methyl-2-thiazolyl)sulfonylamide], the 50% inhibitory concentration (IC50) on mouse EP1 receptor was found to be 4.9 nM.
